The text below walks through data of patent US11426393B2, “Prolyl hydroxylase inhibitors and methods of use” (Akebia Therapeutics, Inc., priority 2006, dated 2022).

One assay has as its system VEGF. The experiment in a line: VEGF ELISA assay. In kind it is cell-based. The following applies: Homo sapiens; HEK293 cells; % of DFO stimulation. As to the method: HEK293 cells are seeded in 96-well poly-lysine coated plates at 20,000 ceils per well in DMEM (10% FBS, 1% NEAA, 0.1% glutamine). Following overnight incubation, the cells are washed with 100 uL of Opti-MEM (Gibco, Carlsbad, Calif.) to remove serum. Compound in DMSO is serially diluted (beginning with 100 μM) in Qpti-MEM and added to the cells. The conditioned media is analyzed for VEGF with a Quantikine human VEGF immunoassay kit (R&D Systems, Minneapolis, Minn.). Optical density measurements at 450 nm are recorded using the Spectra Max 250 (Molecular Devices, Sunnyvale, Calif.). Data defined as % of DFO stimulation is used to calculate EC50 values with GraphPad Prism 4 software (San Diego, Calif.).

In the next assay the target is human EGLN-1 (Homo sapiens (Human), UniProt Q9GZT9). The experiment in a line: EGLN-1 activity assay (MALDI-TOF MS). In kind it is biochemical. The settings on record: read-out: EGLIN1 IC50. As to the method:
(§1) Data defined as percent conversion of substrate to product is analyzed in GraphPad Prism 4 to calculate IC50 values.

A further assay concerns the target human EGLN-3 (Homo sapiens (Human), UniProt Q9H6Z9). The experiment in a line: EGLN-3 activity assay (MALDI-TOF MS). The settings on record: His-MBP-TVMV-EGLN-3 fusion; HIF-1α peptide 556-574 as substrate; read-out: EGLIN3 IC50. In kind it is biochemical. As to the method:
as §1

The subject of a further assay is EPO. The experiment in a line: Mouse serum EPO assay (mouse ischemic hindlimb study). The assay is classed as in vivo. As to the method:
(§2) Mouse Ischemic Hindlimb Study
(§3) All animal work is conducted in accordance with the Guide for the Care and Use of Laboratory Animals (National Academy of Sciences; Copyright©1996) and the Institutional Animal Care and Use Committee guidelines at Procter and Gamble Pharmaceuticals. We studied 9-10 week old male C57Bl/6 mice from Charles River Laboratory (Portage, Mich.). The mice are orally dosed with vehicle (aqueous carbonate buffer, 50 mM; pH 9.0) or compound 1 in vehicle at 50 mg/kg or 100 mg/kg. The animals are dosed three times: day 1 at 8 am and 5 pm, day 2 at […]. One hour after the first dose, unilateral arterial ligation is performed under anesthesia using isoflurane. The femoral artery is ligated proximal to the origin of the popliteal artery. The contralateral limb underwent a sham surgical procedure. Ligation is performed in an alternating fashion between right and left hindlimbs. Two hours after 8 am dosing on day 2, we obtained blood by ventricular stick while the mice are anesthetized with isoflurane. Serum samples for EPO analysis are obtained using gel clot serum separation tubes. Heart, liver, and gastrocnemius muscles are harvested, snap-frozen in liquid nitrogen, and stored in −80° C. until use.
The mouse serum EPO is detected using Mouse Quantikine Erythropoietin ELISA kit from R&D Systems according to manufacturer's ins tractions.

The subject of the next assay is HIF-1α. The experiment in a line: Mouse tissue HIF Western blot analysis. In kind it is in vivo. The following applies: mouse liver, FIG. 1. As to the method:
as §2, §3
Mouse Tissue HIF Western Blot Analysis
Tissues from mice stored at −80° C. are powdered with mortar and pestle chilled with liquid nitrogen. […]

The structures appear in SMILES notation. Bounds are passed on as bounds.

human EGLN-3, sequence (Q9H6Z9 whole entry, the tested form may be a part): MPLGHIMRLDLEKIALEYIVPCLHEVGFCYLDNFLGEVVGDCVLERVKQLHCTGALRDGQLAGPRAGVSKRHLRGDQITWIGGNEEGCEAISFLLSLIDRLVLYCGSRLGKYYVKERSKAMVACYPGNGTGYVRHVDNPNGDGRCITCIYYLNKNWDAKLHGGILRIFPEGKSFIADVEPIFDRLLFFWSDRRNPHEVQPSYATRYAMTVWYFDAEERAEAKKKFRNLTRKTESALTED
human EGLN-1, sequence (Q9GZT9 179-426): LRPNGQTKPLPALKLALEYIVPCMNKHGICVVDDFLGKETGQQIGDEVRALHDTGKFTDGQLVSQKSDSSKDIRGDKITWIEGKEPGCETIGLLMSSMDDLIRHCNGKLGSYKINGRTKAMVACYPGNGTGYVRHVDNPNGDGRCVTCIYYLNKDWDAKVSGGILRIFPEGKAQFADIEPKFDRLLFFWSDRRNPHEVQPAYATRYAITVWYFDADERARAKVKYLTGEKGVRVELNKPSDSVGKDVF

On to `COC(=O)CNC(=O)c1ncc(-c2cccc(C(=O)N3CCCC3)c2)cc1O`, for which the concentration giving a half-maximal response (EC50) in the assay with VEGF was greater than 100 µM.

Take `O=C(O)CNC(=O)c1ncc(-c2cccc(-c3nn[nH]n3)c2)cc1O`: the concentration giving a half-maximal response (EC50) in the assay with VEGF was greater than 100 µM.

As for `COC(=O)CNC(=O)c1ncc(-c2ccc(Cl)cc2)cc1O`, the concentration giving a half-maximal response (EC50) with VEGF is greater than 100 µM.

Take `N#Cc1cccc(-c2cnc(C(=O)NCC(=O)O)c(O)c2)c1`: the concentration for a half-maximal effect (EC50) with VEGF was greater than 100 µM.

`O=C(O)CNC(=O)c1ncc(-c2cccc(C(=O)N3CCCC3)c2)cc1O` registered an EC50 in the assay with VEGF greater than 100 µM.

Turning to `COC(=O)CNC(=O)c1ncc(-c2cccc(Cl)c2)cc1O`, in the assay with VEGF, a half-maximal effect (EC50) was put at 9.9 µM.

`CC(C)Oc1ccc(-c2cnc(C(=O)NCC(=O)O)c(O)c2)cc1`: the EC50 in the assay with VEGF is greater than 100 µM.

Regarding `COC(=O)CNC(=O)c1ncc(-c2ccccc2Cl)cc1O`, the response with VEGF was half-maximal at 7.7 µM (EC50).

For the compound `CNC(=O)CNC(=O)c1ncc(-c2cccc(Cl)c2)cc1O`, the IC50 on human EGLN-1 was 1.2 µM; at human EGLN-3, 1.3 µM. The compound further displayed a concentration giving a half-maximal response (EC50) in the assay on VEGF of 1.4 µM. Also, in the assay on EPO (in vivo response, mouse serum EPO), the EPO response entry was “yes”.

Turning to `CC(C)c1ccc(-c2cnc(C(=O)NCC(=O)O)c(O)c2)cc1`, a half-maximal response with VEGF (EC50) required 15 µM.

In turn, `Cc1ccc(Cl)cc1-c1cnc(C(=O)NCC(=O)O)c(O)c1` came in with an EC50 in the assay with VEGF of 3.3 µM.

Regarding `Cc1ccc(-c2ccc(C(=O)NCC(=O)O)c(O)c2)cc1`, in the assay with VEGF, the concentration giving a half-maximal response (EC50) is greater than 100 µM.

In the assay with VEGF, `COC(=O)CNC(=O)c1ncc(-c2ccc(C)cc2)cc1O` gave an EC50 of 8.2 µM.

As for `O=C(O)CNC(=O)c1ncc(-c2cccc(Cl)c2)cc1O` [drawing 122], the half-maximal effective concentration (EC50) in the assay with VEGF was determined as 7.6 µM.

For the compound `COC(=O)CNC(=O)c1ncc(-c2cccc(C(N)=O)c2)cc1O`, in the assay with VEGF, the concentration giving a half-maximal response (EC50) was determined as 50.1 µM.

Take `O=C(O)CNC(=O)c1ncc(-c2cccc(Cl)c2)cc1O` [{[5-(3-Chlorophenyl)-3-hydroxypyridine-2-carbonyl]amino}-acetic acid]: the “erythropoietin level versus vehicle” value with EPO (mouse serum after oral dosing, FIG. 2) was “elevated versus vehicle”. Also, the “stabilization of HIF-1α (immunoblot analysis of nuclear extracts)” value in the assay with HIF-1α was “stabilization of HIF-1α”.
